Data on five molecules can be found in US20220133699A1, “Antibacterial Compositions” (Singapore Eye Research Institute, priority 2019, published 2022).

Molecules are shown by their SMILES. Positions of bridges follow the written chain, without caps; N, C: chain ends. Residues, ends and D or L forms follow the SMILES beside them. Chains are numbered I, II in the order given.

Assay [1] deals with KLPN 24076. Put plainly: MIC of antibiotics alone against KLPN 24076 (Table 1). Particulars: MIC dil in Full strength MHB, antibiotic alone. It is filed as cell-based, Klebsiella pneumonia. The protocol: (§1) KLPN 8852, 27025 and 24076 are carbapenemase resistant (“CRE”) strains of the common bacteria, KLPN, Klebsiella pneumonia. […] The ability of amikacin as well as three carbapenem antibiotics (meropenem, imipenem, and doripenem) to kill each of these strains was tested using minimum inhibitory concentration, or MIC, as a measure of effectiveness.

Assay [2] has as its system KLPN 27025. Put plainly: MIC of antibiotics alone against KLPN 27025 (Table 1). The note with it: MIC dil in Full strength MHB, antibiotic alone. It is filed as cell-based, Klebsiella pneumonia. The procedure: as §1
The test system of assay [3] is KLPN 8852. Put plainly: MIC of antibiotics alone against KLPN 8852 (Table 1). It counts as cell-based, Klebsiella pneumonia. Particulars: MIC dil in Full strength MHB, antibiotic alone. The procedure: as §1
Assay [4] has as its system ACBA 1010. Put plainly: MIC of antibiotics alone against ACBA 1010 (Table 1). It is filed as cell-based, Acinetobacter baumannii. Particulars: MIC dil in Full strength MHB, antibiotic alone.
Assay [5] deals with KLPN 27025. Description: microbe, parasite or virus in culture. It is filed as cell-based, Klebsiella pneumonia. The note with it: for Synergy MIC / MIC: KLPN 27025; for MIC: Klebsiella pneumoniae, agent alone, read-out: Monotherapy MIC. The protocol: (§2) The ability of B2088 [RGRKVVRR)2KK] to kill each of CRE strains KLPN 8852, 27025 and 24076 was tested by itself (as a monotherapy), as well as in combination with one of meropenem, imipenem, or doripenem (as a combination therapy) using minimum inhibitory concentration, or MIC, as a measure of effectiveness. Synergism MIC indicates the MIC of each of B2088 or the carbapenem antibiotic when used as an antibacterial composition.

Assay [6] has as its system KLPN 24076. Put plainly: microbe, parasite or virus in culture. Particulars: for Synergy MIC / MIC: KLPN 24076; for MIC: Klebsiella pneumoniae, agent alone, read-out: Monotherapy MIC. It counts as cell-based, Klebsiella pneumonia. The procedure: as §2
For assay [7], the system named is KLPN 8852. Put plainly: microbe, parasite or virus in culture. It counts as cell-based, Klebsiella pneumonia. The note with it: for Synergy MIC / MIC: KLPN 8852; for MIC: Klebsiella pneumoniae, agent alone, read-out: Monotherapy MIC. The procedure: as §2
In assay [8] the test system is ACBA 1010. Put plainly: microbe, parasite or virus in culture. It is filed as cell-based, Acinetobacter baumannii. Particulars: for Synergy MIC / MIC: ACBA 1010; for MIC: Acinetobacter baumannii, agent alone, read-out: Monotherapy MIC. The procedure:
The ability of B2088 [RGRKVVRR)2KK] to kill strain ACBA 1010 was tested by itself (as a monotherapy), as well as in combination with one of meropenem, imipenem, or doripenem (as a combination therapy) using minimum inhibitory concentration, or MIC, as a measure of effectiveness. Synergism MIC indicates the MIC of each of B2088 or the carbapenem antibiotic when used as an antibacterial composition.

The mark [9] stands for this setting: MIC of each agent in combination B2088 + Doripenem.
Where [10] appears, read: MIC of each agent in combination B2088 + Imipenem.
Where [11] appears, read: MIC of each agent in combination B2088 + Meropenem.

For `NCC[C@H](O)C(=O)N[C@@H]1C[C@H](N)[C@@H](O[C@H]2O[C@H](CN)[C@@H](O)[C@H](O)[C@H]2O)[C@H](O)[C@H]1O[C@H]1O[C@H](CO)[C@@H](O)[C@H](N)[C@H]1O` [Amikacin, amikacin], the MIC came out at 1.56 µg/mL with KLPN 24076 [1], 0.78 µg/mL in the assay on KLPN 27025 [2], 6.25 µg/mL in the assay with KLPN 8852 [3] and 1.56 µg/mL in the assay on ACBA 1010 [4].

Take `CC(C)[C@H](NC(=O)[C@H](CCCCN)NC(=O)[C@H](CCCNC(=N)N)NC(=O)CNC(=O)[C@@H](N)CCCNC(=N)N)C(=O)N[C@H](C(=O)N[C@@H](CCCNC(=N)N)C(=O)N[C@@H](CCCNC(=N)N)C(=O)NCCCC[C@H](NC(=O)[C@H](CCCNC(=N)N)NC(=O)[C@H](CCCNC(=N)N)NC(=O)[C@@H](NC(=O)[C@@H](NC(=O)[C@H](CCCCN)NC(=O)[C@H](CCCNC(=N)N)NC(=O)CNC(=O)[C@@H](N)CCCNC(=N)N)C(C)C)C(C)C)C(=O)N[C@@H](CCCCN)C(=O)O)C(C)C` [B2088, [RGRKVVRR)2KK]] (I: H-RGRKVVRRKK-OH / II: H-RGRKVVRR; amide I:9-II:C; N-terminus and C-terminus assumed): the “Monotherapy MIC” value was determined as 6.25 µg/mL in the assay with KLPN 27025 [5], 6.25 µg/mL in the assay on KLPN 24076 [6], 25 µg/mL with KLPN 8852 [7] and 6.25 µg/mL in the assay on ACBA 1010 [8]. Besides, the “Synergy MIC” value with KLPN 27025 [5] (setting [9]) was 0.01562 µg/mL; in the assay with KLPN 27025 [5] (setting [10]), 1 µg/mL; in the assay with KLPN 27025 [5] (setting [11]), 0.0625 µg/mL; in the assay with KLPN 24076 [6] (setting [9]) it was 1 µg/mL; in the assay on KLPN 24076 [6] (setting [10]), 1 µg/mL; in the assay on KLPN 24076 [6] (setting [11]) it was 1 µg/mL. The “Synergy MIC” value worked out at 0.25 µg/mL with KLPN 8852 [7] (setting [9]); 0.5 µg/mL in the assay on KLPN 8852 [7] (setting [10]); 1 µg/mL in the assay on KLPN 8852 [7] (setting [11]); 0.0625 µg/mL in the assay on ACBA 1010 [8] (setting [9]); 1 µg/mL in the assay with ACBA 1010 [8] (setting [10]); 1 µg/mL in the assay with ACBA 1010 [8] (setting [11]).

For `C[C@@H](O)[C@H]1C(=O)N2C(C(=O)O)=C(S[C@@H]3CN[C@H](CNS(N)(=O)=O)C3)[C@H](C)[C@H]12` [Doripenem, doripenem], the MIC was 25 µg/mL with KLPN 24076 [1]; 25 µg/mL in the assay on KLPN 27025 [5]; 25 µg/mL in the assay with KLPN 24076 [6]; over 50 µg/mL with KLPN 8852 [7]; 25 µg/mL in the assay on KLPN 27025 [2]; over 50 µg/mL in the assay on KLPN 8852 [3]. Besides, the MIC in the assay on ACBA 1010 [8] was under 0.0975 µg/mL; with ACBA 1010 [4] it was 0.195 µg/mL. The “Synergy MIC” value was 0.007813 µg/mL with KLPN 27025 [5] (setting [9]), 1 µg/mL in the assay on KLPN 24076 [6] (setting [9]), 0.125 µg/mL with KLPN 8852 [7] (setting [9]) and 0.007813 µg/mL in the assay on ACBA 1010 [8] (setting [9]).

For the molecule `C[C@@H](O)[C@H]1C(=O)N2C(C(=O)O)=C(SCCN=CN)C[C@H]12` [Imipenem, imipenem], the MIC with KLPN 24076 [1], with KLPN 27025 [5], with KLPN 24076 [6], in the assay with KLPN 8852 [7], in the assay with KLPN 27025 [2] and in the assay with KLPN 8852 [3] was over 50 µg/mL each time. Also, the results for the MIC in the assay on ACBA 1010 [8] and in the assay with ACBA 1010 [4] were 12.5 µg/mL and 25 µg/mL, respectively. In addition, the “Synergy MIC” value with KLPN 27025 [5] (setting [10]) came out at 1 µg/mL; in the assay with KLPN 24076 [6] (setting [10]), 1 µg/mL; in the assay with KLPN 8852 [7] (setting [10]) it was 0.5 µg/mL; in the assay on ACBA 1010 [8] (setting [10]) it was 1 µg/mL.

For the molecule `C[C@@H](O)[C@H]1C(=O)N2C(C(=O)O)=C(S[C@@H]3CN[C@H](C(=O)N(C)C)C3)[C@H](C)[C@H]12` [Meropenem, meropenem], the MIC in the assay with KLPN 24076 [1] was over 50 µg/mL; in the assay on KLPN 27025 [5], 50 µg/mL; in the assay on KLPN 24076 [6] it was over 50 µg/mL; in the assay with KLPN 8852 [7] it was over 50 µg/mL; with KLPN 27025 [2] it was over 50 µg/mL; with KLPN 8852 [3], over 50 µg/mL. Moreover, the MIC in the assay with ACBA 1010 [8] and in the assay on ACBA 1010 [4] was 1.56 µg/mL each time. In addition, the “Synergy MIC” value stood at 0.007813 µg/mL in the assay with KLPN 27025 [5] (setting [11]), 1 µg/mL with KLPN 24076 [6] (setting [11]), 1 µg/mL in the assay on KLPN 8852 [7] (setting [11]) and 0.5 µg/mL with ACBA 1010 [8] (setting [11]).
